Experimental data from patent US9796671B2, “Aurora kinase inhibitors” (REGENTS OF THE UNIVERSITY OF MINNESOTA, priority 2012, dated 2017).

Experiments:
Aurora A = biological target: T1, Aurora A (Homo sapiens, UniProt O14965); test: Aurora A in vitro kinase assay; type: biochemical; conditions: 1 μM, compared with control
T1 construct: purchased Millipore
T1 sequence (O14965 1-403): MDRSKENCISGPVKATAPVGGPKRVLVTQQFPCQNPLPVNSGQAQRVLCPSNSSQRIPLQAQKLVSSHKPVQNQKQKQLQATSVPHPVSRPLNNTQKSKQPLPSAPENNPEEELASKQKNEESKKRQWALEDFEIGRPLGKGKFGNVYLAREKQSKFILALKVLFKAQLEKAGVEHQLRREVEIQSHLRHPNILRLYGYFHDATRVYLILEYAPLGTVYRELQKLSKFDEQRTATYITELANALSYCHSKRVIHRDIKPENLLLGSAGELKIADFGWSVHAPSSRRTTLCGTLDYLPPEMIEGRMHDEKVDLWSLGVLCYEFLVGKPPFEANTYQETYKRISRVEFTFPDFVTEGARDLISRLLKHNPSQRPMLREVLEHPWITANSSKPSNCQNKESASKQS
Description: Proteins are resolved by SDS-PAGE and transferred onto polyvinylidene difluoride membranes (Millipore, Mass.), which are blocked with nonfat milk and hybridized with specific primary antibodies. The protein bands are visualized using an enhanced chemiluminescence reagent (GE Healthcare, Pittsburgh, Pa.) after hybridization with a horseradish peroxidase-conjugated secondary antibody. […] Reactions are carried out in 1× kinase buffer (25 mM Tris-HCl pH 7.5, 5 mM beta-glycerophosphate, 2 mM dithiothreitol (DTT), 0.1 mM Na3VO4, 10 mM MgCl2 and 5 mM MnCl2) containing 100 μM ATP at 30° C. for 30 minutes. Reactions are stopped and proteins detected by Western blotting. An in vitro kinase assay was used to determine whether Compound 1 could inhibit Aurora B kinase activity using recombinant Aurora B protein and various concentrations of Compound 1. […] The effect of Compound 1 on Aurora A kinase activity using an in vitro kinase assay was also examined.

MRC-5 normal lung cells = test: Cytotoxicity (MTS assay); type: cell-based
Description: To estimate the cytotoxicity of Compound 1, cells are seeded (8×10^3 cells per well) in 96-well plates and cultured overnight. Cells are fed with fresh medium and treated with different doses of Compound 1. After culturing for various times, the cytotoxicity of Compound 1 is measured using an MTS assay kit (Promega, Madison, Wis.) according to the manufacturer's instructions.
The toxicity of Compound 1 on both MRC-5 normal lung cells and A549 lung cancer cells was then examined.

HCT116 p53−/− cells = test: Soft agar assay, p53-deficient colon cancer cells; type: cell-based; conditions: Homo sapiens, read-out: inhibition of growth in soft agar
Description: (§1) Tumor cells are suspended in basal medium Eagle (BME) medium and added to 0.6% agar, with different concentrations of Compound 1 in a base layer and a top layer of 0.3% agar. The cultures are maintained at 37° C. in a 5% CO2 incubator for 1 to 2 weeks and then colonies are counted under a microscope using the Image-Pro Plus software (v.4) program (Media Cybernetics, Silver Spring, Md.).
The effect of compound 1 in a pair of colon cancer cell lines, p53 wildtype (HCT116 p53^+/+) and p53-deficient (HCT116 p53^−/−) cells was also examined to determine whether the sensitivity of cells to compound 1 directly correlates with the status of p53 in cells.

[1] = tested on: A549 cells transfected with mock shRNA; test: Anchorage-independent growth, mock shRNA cells; type: cell-based; conditions: Homo sapiens
Description: as §1
The effect of knocking down Aurora B expression in A549 cancer cells on the cell's sensitivity to Compound 1 was evaluated. […] Compound 1 (0.5 μM) inhibited anchorage-independent growth of A549 cells transfected with mock shRNA by about 90%.

Akt1 = Akt1 (Homo sapiens, UniProt P31749); test: Akt1 in vitro kinase assay; type: biochemical
Description: (§2) According to the kinase profiler assay results, Akt2 also might be a potential target of Compound 1. An Akt1 and Akt2 in vitro kinase assays was performed.

[2] = tested on: phosphorylation of Akt (Ser473), GSK3β (Ser9), p70S6K (Thr389) and S6 (Ser235,236) in A549 cells; test: Western blot of Akt and downstream signaling in cells; type: cell-based, human
Text: (§3) Proteins are resolved by SDS-PAGE and transferred onto polyvinylidene difluoride membranes (Millipore, Mass.), which are blocked with nonfat milk and hybridized with specific primary antibodies. The protein bands are visualized using an enhanced chemiluminescence reagent (GE Healthcare, Pittsburgh, Pa.) after hybridization with a horseradish peroxidase-conjugated secondary antibody.
as §2

[3] = tested on: phosphorylation of Akt (Ser473), GSK3β (Ser9), p70S6K (Thr389) and S6 (Ser235,236) in H520 cells; test: as above; type: cell-based, human
Text: as §3, §2

[4] = tested on: human A549 lung cancer cell xenografts; test: A549 xenograft in athymic nude mice, intraperitoneal; type: in vivo
Description: Tumor tissues from mice are embedded in a paraffin block and subjected to hematoxylin and eosin (H&E) staining and immunohistochemistry. Tumor tissues are deparaffinized and hydrated, then permeabilized with 0.5% Triton X-100/1 PBS for 10 min, hybridized with Ki-67 (1:500) as the primary antibody and an HRP-conjugated goat anti-rabbit or mouse IgG antibody is used as the secondary antibody. After developing with 3,30-diaminobenzidine, the sections are counterstained with H&E. All sections are observed by microscope and the Image-Pro Plus software (v.4) program (Media Cybernetics).
The ability of Compound 1 to inhibit the growth of human A549 lung cancer cell xenografts in athymic nude mice was then evaluated. Tumor volumes were measured twice a week and mouse weights were determined once a week. Compound 1 caused a marked reduction in tumor size in the human A549 xenograft model. In mice treated with Compound 1 at 20 mg/kg, twice a week intraperitoneally, mean tumor volumes were reduced to 164 mm^3 in comparison with control group (408 mm^3) (P<0.01). […] Moreover, the effects of Compound 1 on a tumor proliferation marker were evaluated by immunohistochemistry and H&E staining of A549 tumor tissues after the 31 days of treatment.

Sequence of Akt1 (P31749 whole entry, species assumed): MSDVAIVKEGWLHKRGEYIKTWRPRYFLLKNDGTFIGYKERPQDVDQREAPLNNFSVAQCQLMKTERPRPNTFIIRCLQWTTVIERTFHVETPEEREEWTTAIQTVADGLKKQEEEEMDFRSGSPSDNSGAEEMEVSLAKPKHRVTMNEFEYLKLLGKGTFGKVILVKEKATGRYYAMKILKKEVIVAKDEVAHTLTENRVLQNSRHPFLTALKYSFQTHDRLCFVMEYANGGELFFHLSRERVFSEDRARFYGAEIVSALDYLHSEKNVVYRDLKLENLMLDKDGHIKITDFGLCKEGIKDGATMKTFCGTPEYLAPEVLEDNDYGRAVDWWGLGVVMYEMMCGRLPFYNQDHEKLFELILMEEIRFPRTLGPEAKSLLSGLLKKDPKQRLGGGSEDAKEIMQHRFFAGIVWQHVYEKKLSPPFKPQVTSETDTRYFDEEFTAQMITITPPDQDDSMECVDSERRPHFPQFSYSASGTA

Q: Which results are given for `O=C(/C=C/c1ccc2c(c1)OCO2)/C=C1/C(=O)Nc2ccccc21` [Compound 1]?
A: effect on histone H3 (Ser10) phosphorylation by Aurora A (Aurora A): No effect; cytotoxic effects on MRC-5 normal lung cells (MRC-5 normal lung cells; 1 μM or less): no obvious cytotoxic effects; toxicity to MRC-5 normal cells (MRC-5 normal lung cells; 5 μM, 48 hours): not; toxicity on MRC-5 normal lung cells (MRC-5 normal lung cells; concentrations greater than 10 μM): substantial toxicity; inhibition at 0.05 µM (HCT116 p53−/− cells; HCT-116, 0.05 μM): 40%; inhibition at 0.1 µM (HCT116 p53−/− cells; HCT-116, 0.1 μM): > 95%; inhibition at 0.5 µM [1]: ~90%; inhibition at 5 µM (Akt1; 5 μM): 32%; concentration inhibiting Akt1 kinase activity in vitro (Akt1; discussion statement): ≥ 1 µM; effect on the phosphorylation of Akt or its downstream signaling molecules [2]: no effect; effect on the phosphorylation of Akt or its downstream signaling molecules [3]: no effect; loss of body weight ([4]; 20 mg/kg, twice a week intraperitoneally): no obvious loss; mean tumor volume ([4]; 20 mg/kg, twice a week intraperitoneally, control group 408 mm^3, P<0.01): 164 mm^3; expression of Ki-67 in A549 tumor tissues (immunohistochemistry) ([4]; after the 31 days of treatment): markedly decreased
